Measurements from US8129371B2, “Thienopyrimidine and pyrazolopyrimidine compounds and their use as mTOR kinase and PI3 kinase inhibitors” (Wyeth LLC, priority 2007, dated 2012).
Like-named read-outs stand apart in the source and are kept apart here.

How the values were obtained:
PI3K [1] = target: T1, PI3K (Homo sapiens, UniProt P48736); experiment: Fluorescence polarization assay for PI3K; format: biochemical; conditions: read-out: PI3 Kinase γ IC50
T1 construct: PI3 Kinase γ IC50; other: PI3 Kinase γ; other: PI3 Kinase γ isoform, fluorescence polarization
Procedure, shortened: (§1)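 Fluorescence-polarization competition readout: after 30–60 min of PIP2/ATP turnover in 1% DMSO, a stop mix with GST-GRP (70 nM) and red probe (10 nM) was added.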

PI3K [2] = target: T2, PI3K (Homo sapiens, UniProt P42336); experiment: Fluorescence polarization assay for PI3K; format: biochemical; conditions: read-out: PI3 Kinase α IC50
T2 construct: PI3 Kinase α IC50; other: PI3 Kinase α; other: PI3 Kinase α isoform, fluorescence polarization
Procedure, shortened: as §1

breast line MDA468 = experiment: In vitro cell culture growth assay (MTS), MDA468; format: cell-based; conditions: Homo sapiens, 72 h, MDA468 cells, three days after drug treatment
Procedure, shortened: (§2)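 Following a one-day attachment period, cells received inhibitors for 3 days. MTS metabolism by viable cells was quantified at 490 nm absorbance and converted to percent of same-plate vehicle control growth.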

Human mTOR (FLAG-TOR) = target: T3, Human mTOR (FLAG-TOR) (Homo sapiens, UniProt P42345); experiment: Human mTOR kinase assay with purified enzyme, DELFIA format; format: biochemical
T3 construct: FLAG
Procedure, shortened: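 DELFIA readout: Eu-anti-P(T389)-S6K antibody (40 ng/mL, 1 h) on captured His6-S6K from the stopped reaction. Kinase step used purified FLAG-tagged human mTOR with test compound in HEPES (pH 7.4)/MnCl2/DTT buffer, 2 h at room temperature (linear 1–6 h), terminated by EDTA/EGTA.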

prostate line LNCap = experiment: In vitro cell culture growth assay (MTS), LNCap; format: cell-based; conditions: Homo sapiens, LNCaP, 72 h, LNCap cells, three days after drug treatment
Procedure, shortened: as §2

[3] = PI3 Kinase γ isoform, fluorescence polarization
[4] = PI3 Kinase α isoform, fluorescence polarization
[5] = purified human mTOR enzyme, DELFIA format

T2 sequence (P42336 whole entry, canonical isoform): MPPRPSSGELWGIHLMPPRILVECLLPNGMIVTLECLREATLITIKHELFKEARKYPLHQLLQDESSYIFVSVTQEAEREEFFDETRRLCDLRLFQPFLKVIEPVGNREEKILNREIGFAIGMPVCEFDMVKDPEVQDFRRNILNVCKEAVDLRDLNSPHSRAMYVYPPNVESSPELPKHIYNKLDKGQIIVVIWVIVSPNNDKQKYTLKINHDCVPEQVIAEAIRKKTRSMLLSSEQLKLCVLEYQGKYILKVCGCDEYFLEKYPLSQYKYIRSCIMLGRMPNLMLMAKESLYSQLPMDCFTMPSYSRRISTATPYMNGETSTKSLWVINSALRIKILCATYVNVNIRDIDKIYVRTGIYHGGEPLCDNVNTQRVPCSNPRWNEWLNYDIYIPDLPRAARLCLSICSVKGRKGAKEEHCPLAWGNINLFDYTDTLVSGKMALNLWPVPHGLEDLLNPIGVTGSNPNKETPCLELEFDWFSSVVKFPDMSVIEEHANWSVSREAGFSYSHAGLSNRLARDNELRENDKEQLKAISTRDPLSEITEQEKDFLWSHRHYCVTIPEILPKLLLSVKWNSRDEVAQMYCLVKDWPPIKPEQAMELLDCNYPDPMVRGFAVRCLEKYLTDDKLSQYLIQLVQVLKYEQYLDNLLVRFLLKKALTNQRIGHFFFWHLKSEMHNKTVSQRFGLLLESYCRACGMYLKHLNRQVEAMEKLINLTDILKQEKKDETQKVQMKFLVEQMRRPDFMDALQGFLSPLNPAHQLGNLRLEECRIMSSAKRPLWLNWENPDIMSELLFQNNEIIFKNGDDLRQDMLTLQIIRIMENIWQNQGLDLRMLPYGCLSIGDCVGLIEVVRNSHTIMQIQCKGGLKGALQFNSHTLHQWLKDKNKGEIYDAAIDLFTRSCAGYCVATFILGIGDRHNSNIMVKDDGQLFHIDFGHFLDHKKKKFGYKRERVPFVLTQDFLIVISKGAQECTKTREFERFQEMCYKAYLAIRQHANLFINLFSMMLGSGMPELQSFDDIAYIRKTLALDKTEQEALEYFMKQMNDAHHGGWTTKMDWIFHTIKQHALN
T1 sequence (P48736 whole entry, canonical isoform): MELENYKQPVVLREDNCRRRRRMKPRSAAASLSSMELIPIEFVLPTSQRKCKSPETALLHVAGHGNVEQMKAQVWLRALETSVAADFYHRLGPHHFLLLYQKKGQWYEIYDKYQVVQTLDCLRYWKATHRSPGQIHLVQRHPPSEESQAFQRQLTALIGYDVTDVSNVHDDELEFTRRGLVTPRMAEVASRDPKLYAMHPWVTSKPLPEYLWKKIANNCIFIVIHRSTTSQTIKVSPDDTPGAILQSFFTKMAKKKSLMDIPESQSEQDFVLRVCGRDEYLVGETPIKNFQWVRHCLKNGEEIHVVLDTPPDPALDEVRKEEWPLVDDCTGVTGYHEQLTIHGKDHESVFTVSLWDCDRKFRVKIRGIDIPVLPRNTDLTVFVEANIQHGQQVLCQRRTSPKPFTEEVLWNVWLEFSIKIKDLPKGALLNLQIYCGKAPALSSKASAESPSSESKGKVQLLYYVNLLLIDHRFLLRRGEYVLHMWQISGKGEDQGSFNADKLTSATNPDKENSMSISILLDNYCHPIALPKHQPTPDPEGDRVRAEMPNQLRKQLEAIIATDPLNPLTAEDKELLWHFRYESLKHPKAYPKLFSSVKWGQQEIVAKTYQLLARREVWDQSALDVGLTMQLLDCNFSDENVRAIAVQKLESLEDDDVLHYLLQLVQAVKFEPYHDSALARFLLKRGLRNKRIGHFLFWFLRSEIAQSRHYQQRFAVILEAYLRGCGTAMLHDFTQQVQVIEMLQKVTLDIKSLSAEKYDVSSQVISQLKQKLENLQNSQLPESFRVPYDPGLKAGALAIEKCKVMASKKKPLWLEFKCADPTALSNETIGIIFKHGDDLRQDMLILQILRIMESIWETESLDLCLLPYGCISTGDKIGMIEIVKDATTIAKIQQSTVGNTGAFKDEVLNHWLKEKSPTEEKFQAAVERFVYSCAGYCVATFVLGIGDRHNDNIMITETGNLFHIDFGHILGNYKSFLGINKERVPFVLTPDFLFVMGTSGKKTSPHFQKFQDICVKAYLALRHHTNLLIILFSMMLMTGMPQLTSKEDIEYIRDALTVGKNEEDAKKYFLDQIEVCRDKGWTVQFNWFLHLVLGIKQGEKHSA

| SMILES | IC50 (PI3K [1]; PI3 Kinase γ) [nM] | IC50 (PI3K [2]; PI3 Kinase α) [nM] | IC50 (breast line MDA468) [nM] | IC50 (Human mTOR (FLAG-TOR)) [nM] | IC50 (prostate line LNCap) [nM] | IC50 (PI3K [1]; [3]) [nM] | IC50 (PI3K [2]; [4]) [nM] | IC50 (Human mTOR (FLAG-TOR); [5]) [nM] |
| --- | --- | --- | --- | --- | --- | --- | --- | --- |
| CNC(=O)Nc1ccc(-c2nc(N3CC4CCC(C3)O4)c3cnn(C(C)C)c3n2)cc1 [Example 139, 1-{4-[1-isopropyl-4-(8-oxa-3-azabicyclo[3.2.1]oct-3-yl)-1H-pyrazolo[3,4-d]pyrimidin-6-yl]phenyl}-3-methylurea] | 6170 | 234 | 50 | 0.115 | 5 | – | – | – |
| O=C(NCCO)Nc1ccc(-c2nc(N3CC4CCC(C3)O4)c3cnn(CCO)c3n2)cc1 [Example 196, 1-(2-hydroxyethyl)-3-{4-[1-(2-hydroxyethyl)-4-(8-oxa-3-azabicyclo[3.2.1]oct-3-yl)-1H-pyrazolo[3,4-d]pyrimidin-6-yl]phenyl}urea] | 7330 | 607 | 13000 | 2.2 | 10000 | – | – | – |
| CCn1nc(N2CCCC2)c2c(N3CC4CCC(C3)O4)nc(-c3ccc(NC(=O)NC)cc3)nc21 [Example 347, 1-{4-[1-ethyl-4-(8-oxa-3-azabicyclo[3.2.1]oct-3-yl)-3-pyrrolidin-1-yl-1H-pyrazolo[3,4-d]pyrimidin-6-yl]phenyl}-3-methylurea] | – | – | 1300 | – | 310 | 7130 | 1100 | 5.6 |
| CCn1nc(C=O)c2c(N3CC4CCC(C3)O4)nc(-c3ccc(NC(=O)NC)cc3)nc21 [Example 352, 1-{4-[1-ethyl-3-formyl-4-(8-oxa-3-azabicyclo[3.2.1]oct-3-yl)-1H-pyrazolo[3,4-d]pyrimidin-6-yl]phenyl}-3-methylurea] | – | – | 700 | – | 200 | 6100 | 1080 | 17.5 |
| CN(C)CCNC(=O)Nc1ccc(-c2nc(N3CC4CCC(C3)O4)c3cnn(C)c3n2)cc1 [Example 58, 1-[2-(dimethylamino)ethyl]-3-{4-[1-methyl-4-(8-oxa-3-azabicyclo[3.2.1]oct-3-yl)-1H-pyrazolo[3,4-d]pyrimidin-6-yl]phenyl}urea] | 1120 | 307 | 2800 | 99 | 700 | – | – | – |
| O=C(Nc1ccc(-c2nc(N3CC4CCC(C3)O4)c3cnn(C4CCC5(CC4)OCCO5)c3n2)cc1)OCCF [Example 130, 2-fluoroethyl {4-[1-(1,4-dioxaspiro[4.5]dec-8-yl)-4-(8-oxa-3-azabicyclo[3.2.1]oct-3-yl)-1H-pyrazolo[3,4-d]pyrimidin-6-yl]phenyl}carbamate] | > 10000 | > 10000 | 800 | 1.5 | 45 | – | – | – |
| Oc1ccc(Nc2nc(N3CC4CCC(C3)O4)c3cnn(C4CCN(Cc5ccccc5)CC4)c3n2)cc1 [Example 30, 4-{[1-(1-benzylpiperidin-4-yl)-4-(8-oxa-3-azabicyclo[3.2.1]oct-3-yl)-1H-pyrazolo[3,4-d]pyrimidin-6-yl]amino}phenol] | > 10000 | 2450 | 7600 | 260 | 2800 | – | – | – |
| CN(C)CCNC(=O)Nc1ccc(-c2nc(N3CC4CCC(C3)O4)c3cnn(C4CCC5(CC4)OCCO5)c3n2)cc1 [Example 133, 1-[2-(dimethylamino)ethyl]-3-{4-[1-(1,4-dioxaspiro[4.5]dec-8-yl)-4-(8-oxa-3-azabicyclo[3.2.1]oct-3-yl)-1H-pyrazolo[3,4-d]pyrimidin-6-yl]phenyl}urea] | 7640 | 905 | 700 | 18.5 | 90 | – | – | – |
| CCn1ncc2c(N3CC4CCC(C3)O4)nc(-c3ccc(NC(=O)NCCCN)cc3)nc21 [Example 176, 1-(3-aminopropyl)-3-{4-[1-ethyl-4-(8-oxa-3-azabicyclo[3.2.1]oct-3-yl)-1H-pyrazolo[3,4-d]pyrimidin-6-yl]phenyl}urea] | 9500 | 386 | 28000 | 3.55 | 5500 | – | – | – |
| CCn1ncc2c(N3CC4CCC(C3)O4)nc(-c3ccc(NC(=O)Nc4ccc(C(N)=O)cc4)cc3)nc21 [Example 285, 4-[({4-[1-ethyl-4-(8-oxa-3-azabicyclo[3.2.1]oct-3-yl)-1H-pyrazolo[3,4-d]pyrimidin-6-yl]phenyl}carbamoyl)amino]benzamide] | 524 | 23 | 1 | 0.105 | < 1 | – | – | – |
| CNC(=O)Nc1ccc(-c2nc(N3CC4CCC(C3)O4)c3cnn([C@H]4CC[C@@H](OC)CC4)c3n2)cc1 (relative stereo) [Example 387, 1-{4-[1-(cis-4-methoxycyclohexyl)-4-(8-oxa-3-azabicyclo[3.2.1]oct-3-yl)-1H-pyrazolo[3,4-d]pyrimidin-6-yl]phenyl}-3-methylurea] | – | – | 19 | – | 1 | 404 | 705 | 0.33 |
| CN1CCN(c2ccc(NC(=O)Nc3ccc(-c4nc(N5CC6CCC(C5)O6)c5cnn(CCC#N)c5n4)cc3)cc2)CC1 [Example 220, 1-{4-[1-(2-cyanoethyl)-4-(8-oxa-3-azabicyclo[3.2.1]oct-3-yl)-1H-pyrazolo[3,4-d]pyrimidin-6-yl]phenyl}-3-[4-(4-methylpiperazin-1-yl)phenyl]urea] | 1680 | 74 | 10 | 0.48 | 4 | – | – | – |
| Cn1ncc2c(N3CC4CCC(C3)O4)nc(-c3ccc(NC(=O)Nc4ccc(S(C)(=O)=O)cc4)cc3)nc21 [Example 239, 1-{4-[1-methyl-4-(8-oxa-3-azabicyclo[3.2.1]oct-3-yl)-1H-pyrazolo[3,4-d]pyrimidin-6-yl]phenyl}-3-[4-(methylsulfonyl)phenyl]urea] | 440 | 64 | 4 | 0.108 | 1 | – | – | – |
| c1cc2cc(-c3nc(N4CC5CCC(C4)O5)c4cnn(C5CCC6(CC5)OCCO6)c4n3)ccc2[nH]1 [Example 388, 1-(1,4-dioxaspiro[4.5]dec-8-yl)-6-(1H-indol-5-yl)-4-(8-oxa-3-azabicyclo[3.2.1]oct-3-yl)-1H-pyrazolo[3,4-d]pyrimidine] | – | – | 2000 | – | 330 | > 10000 | 10500 | 12.5 |
| CN1CCN(c2ccc(NC(=O)Nc3ccc(-c4nc(N5CC6CCC(C5)O6)c5cnn(CCO)c5n4)cc3)cc2)CC1 [Example 203, 1-{4-[1-(2-hydroxyethyl)-4-(8-oxa-3-azabicyclo[3.2.1]oct-3-yl)-1H-pyrazolo[3,4-d]pyrimidin-6-yl]phenyl}-3-[4-(4-methylpiperazin-1-yl)phenyl]urea] | 1140 | 104 | 2 | 1.07 | 1 | – | – | – |
| COC(=O)N1CCC(n2ncc3c(N4CC5CCC(C4)O5)nc(-c4ccc(NC(=O)Nc5ccc(CO)cc5)cc4)nc32)CC1 [Example 164, methyl 4-{6-[4-({[4-(hydroxymethyl)phenyl]carbamoyl}amino)phenyl]-4-(8-oxa-3-azabicyclo[3.2.1]oct-3-yl)-1H-pyrazolo[3,4-d]pyrimidin-1-yl}piperidine-1-carboxylate] | 1820 | 29 | < 1 | 0.08 | < 1 | – | – | – |
| CC(C)OC(=O)N1CCC(n2ncc3c(N4CC5CCC(C4)O5)nc(-c4ccc(NC(=O)Nc5ccncc5)cc4)nc32)CC1 [Example 73, isopropyl 4-[4-(8-oxa-3-azabicyclo[3.2.1]oct-3-yl)-6-{4-[(pyridin-4-ylcarbamoyl)amino]phenyl}-1H-pyrazolo[3,4-d]pyrimidin-1-yl]piperidine-1-carboxylate] | 672 | 460 | 9 | 0.23 | 0.9 | – | – | – |
| CC(=O)Nc1ccc(-c2nc(N3CC4CCC(C3)O4)c3sccc3n2)cc1 [Example 415, N-{4-[4-(8-oxa-3-azabicyclo[3.2.1]oct-3-yl)thieno[3,2-d]pyrimidin-2-yl]phenyl}acetamide] | – | – | 8500 | – | 1700 | > 10000 | 4370 | 26 |
| CNC(=O)Nc1ccc(-c2nc(N3CC4CCC(C3)O4)c3cnn(C4CCC(OC)CC4)c3n2)cc1 (stereo not shown) [Example 383, 1-{4-[1-(4-methoxycyclohexyl)-4-(8-oxa-3-azabicyclo[3.2.1]oct-3-yl)-1H-pyrazolo[3,4-d]pyrimidin-6-yl]phenyl}-3-methylurea] | – | – | 30 | – | 7 | > 10000 | 793 | 0.53 |
| CN(C)CCn1ncc2c(N3CC4CCC(C3)O4)nc(-c3ccc(NC(=O)Nc4ccc(N5CCN(C)CC5)cc4)cc3)nc21 [Example 159, 1-(4-{1-[2-(dimethylamino)ethyl]-4-(8-oxa-3-azabicyclo[3.2.1]oct-3-yl)-1H-pyrazolo[3,4-d]pyrimidin-6-yl}phenyl)-3-[4-(4-methylpiperazin-1-yl)phenyl]urea] | 3820 | 188 | 90 | 4.85 | 18 | – | – | – |
